Measurements as given in the supplement of paper PMC10307832.

Key:
Assay in all cases: relative viability (nuclei count vs DMSO), 5 days (fraction); higher = more cells survive
[1] = compound: CCn1c(-c2nonc2N)nc2c(C#CC(C)(C)O)ncc(OC[C@H]3CCCNC3)c21 + CCNC(=O)c1noc(-c2cc(C(C)C)c(O)cc2O)c1-c1ccc(CN2CCOCC2)cc1 [Luminespib] (partner 0.01 µM)
Procedure, shortened: (§1)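 Medians of duplicate plates are given as relative viability. That measure is the nuclei count in treated wells divided by the count in vehicle wells. Counts were taken on 4× images of lung cancer cell lines in 1536-well plates, 5 days after pin-tool dosing the day after seeding with one drug alone or a fixed anchor-drug dose plus five library-drug doses (not always all listed) in √10 steps.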

[2] = compound: CCn1c(-c2nonc2N)nc2c(C#CC(C)(C)O)ncc(OC[C@H]3CCCNC3)c21 + CC1(C)CCC(c2ccc(Cl)cc2)=C(CN2CCN(c3ccc(C(=O)NS(=O)(=O)c4ccc(N[C@H](CCN5CCOCC5)CSc5ccccc5)c(S(=O)(=O)C(F)(F)F)c4)cc3)CC2)C1 [Navitoclax] (partner 0.5 µM)
Procedure, shortened: as §1

[3] = compound: CCn1c(-c2nonc2N)nc2c(C#CC(C)(C)O)ncc(OC[C@H]3CCCNC3)c21 + Cc1nc(Nc2ncc(C(=O)Nc3c(C)cccc3Cl)s2)cc(N2CCN(CCO)CC2)n1 [Dasatinib] (partner 0.075 µM)
Procedure, shortened: as §1

[4] = compound: CCn1c(-c2nonc2N)nc2c(C#CC(C)(C)O)ncc(OC[C@H]3CCCNC3)c21 + NC(=O)Nc1cc(-c2cccc(F)c2)sc1C(=O)N[C@H]1CCCNC1 [AZD7762] (partner 0.2 µM)
Procedure, shortened: as §1

Cell Line | relative viability ([1]; first compound 0.01 µM) | relative viability ([1]; first compound 0.03162 µM) | relative viability ([1]; first compound 0.1 µM) | relative viability ([1]; first compound 0.3162 µM) | relative viability ([1]; first compound 1 µM) | relative viability ([2]; first compound 0.01 µM) | relative viability ([2]; first compound 0.03162 µM) | relative viability ([2]; first compound 0.1 µM) | relative viability ([2]; first compound 0.3162 µM) | relative viability ([2]; first compound 1 µM) | relative viability ([3]; first compound 0.01 µM) | relative viability ([3]; first compound 0.03162 µM) | relative viability ([3]; first compound 0.1 µM) | relative viability ([3]; first compound 0.3162 µM) | relative viability ([3]; first compound 1 µM) | relative viability ([4]; first compound 0.01 µM) | relative viability ([4]; first compound 0.03162 µM) | relative viability ([4]; first compound 0.1 µM) | relative viability ([4]; first compound 0.3162 µM) | relative viability ([4]; first compound 1 µM)
NCI-H1437 | 1.07 | 1.13 | 1.21 | 1.09 | 1.17 | 1.05 | 1.08 | 1.11 | 1.09 | 1.13 | 0.381 | 0.359 | 0.391 | 0.385 | 0.354 | 1.03 | 1.17 | 1.18 | 1.08 | 0.953
NCI-H1651 | 0.969 | 0.875 | 0.811 | 0.755 | 0.953 | 1.06 | 1.02 | 1.01 | 1.14 | 1 | 0.43 | 0.402 | 0.412 | 0.396 | 0.454 | 0.401 | 0.472 | 0.454 | 0.447 | 0.337
NCI-H1666 | 0.948 | 0.933 | 1.05 | 0.959 | 1.04 | 0.881 | 0.835 | 0.699 | 0.904 | 0.871 | 0.847 | 0.99 | 0.833 | 0.819 | 0.771 | 0.806 | 0.827 | 0.839 | 0.804 | 0.876
NCI-H1734 | 0.189 | 0.194 | 0.177 | 0.145 | 0.219 | 0.781 | 0.921 | 0.814 | 0.821 | 0.816 | 0.473 | 0.475 | 0.414 | 0.407 | 0.38 | 0.66 | 0.581 | 0.452 | 0.548 | 0.504
NCI-H1755 | 0.455 | 0.519 | 0.556 | 0.513 | 0.423 | 0.985 | 0.984 | 0.981 | 0.958 | 1.01 | 0.432 | 0.419 | 0.423 | 0.42 | 0.42 | 0.501 | 0.418 | 0.382 | 0.406 | 0.425
NCI-H1792 | 0.593 | – | 0.566 | 0.416 | 0.47 | 0.722 | 0.501 | 0.619 | 0.62 | 0.604 | 0.758 | – | 0.818 | 0.705 | 0.897 | 0.761 | 1.01 | 0.794 | 0.612 | 0.602
NCI-H1793 | 0.24 | 0.237 | 0.212 | 0.189 | 0.233 | 0.381 | 0.462 | 0.465 | 0.375 | 0.41 | 0.361 | 0.406 | 0.399 | 0.359 | 0.421 | 0.45 | 0.716 | – | 0.412 | 0.411
NCI-H1915 | 0.713 | 0.898 | 0.741 | 0.755 | 0.724 | 0.821 | 0.778 | 0.79 | 0.488 | 0.76 | 0.295 | 0.309 | 0.324 | 0.302 | 0.368 | 0.699 | 0.698 | 0.672 | 0.648 | 0.607
NCI-H1944 | 0.7 | 0.786 | 0.76 | 0.751 | 0.733 | 1.11 | 0.954 | 1.13 | 1.05 | 1.08 | 0.215 | 0.224 | 0.213 | 0.212 | 0.212 | 0.682 | 0.47 | 0.596 | 0.513 | 0.654
NCI-H1975 | 0.214 | 0.166 | 0.199 | 0.247 | 0.304 | 1.03 | 1.3 | 1.12 | 1.14 | 1.03 | 0.355 | 0.462 | 0.412 | 0.376 | 0.306 | 0.663 | 0.694 | 0.811 | 0.695 | 0.641
NCI-H1993 | 0.84 | 0.728 | 0.739 | 0.645 | 0.686 | 0.943 | 1.01 | 1.04 | 0.767 | 0.961 | 0.759 | 0.531 | 0.603 | 0.473 | 0.527 | 0.836 | 0.954 | 0.923 | 0.738 | 0.725
NCI-H2085 | 0.417 | 0.382 | 0.492 | 0.42 | 0.463 | 1.12 | 1.09 | 1.1 | 1.08 | 1.07 | 0.21 | 0.272 | 0.278 | 0.255 | 0.228 | 0.966 | 0.982 | 1.01 | 0.954 | 1
NCI-H2087 | 0.128 | 0.154 | 0.165 | 0.152 | 0.163 | 0.832 | 1.08 | 0.961 | 1.03 | 1.02 | 0.738 | 0.751 | 0.936 | 0.795 | 0.913 | 1.31 | – | 1.13 | 1.35 | 1.42
NCI-H2126 | 0.85 | 0.914 | 0.892 | 0.859 | 0.961 | 0.908 | 0.848 | 0.847 | 0.927 | 0.88 | 0.587 | 0.468 | 0.597 | 0.579 | 0.677 | 0.995 | 0.982 | 1 | 1.02 | 1.04
NCI-H2170 | 0.779 | 0.785 | 0.572 | 0.731 | 0.744 | 0.613 | 0.585 | 0.64 | 0.493 | 0.529 | 0.566 | 0.532 | 0.57 | 0.535 | 0.516 | 0.756 | 0.947 | 0.86 | 0.84 | 0.941
NCI-H2347 | 0.396 | 0.0975 | – | 0.516 | 0.31 | 0.849 | 0.751 | 0.813 | 0.796 | 0.882 | 0.317 | 0.264 | – | 0.274 | 0.334 | 0.612 | 0.738 | 0.636 | 0.63 | 0.562
